Results from patent publication US20240181000A1, “LGG-DERIVED PEPTIDES AND METHODS OF USE THEREOF” (Ohio State Innovation Foundation, priority 2021, published 2024).
No end group written: not given here.

Columns and labels:
[1] = tested on: commensal and probiotic bacteria; experiment: Effect against beneficial microbes; type: cell-based; conditions: at MICs
Experimental: Effect against beneficial microbes: Peptides (P1, P2, and P3) were tested against different commensal and probiotic bacteria to determine their specificity of activity as described previously. Peptides were added at their MICs to 100 μL of known concentration of bacterial cultures and cultures were incubated under required conditions. Following incubation, OD600 of cultures was measured to determine the effect of peptides on bacterial growth.

[2] = tested on: APEC O78 membrane; experiment: Transmission electron microscopy; type: cell-based, E. coli; conditions: 10×MIC, 3 h
Experimental: Transmission electron microscopy: To visualize the effect of peptides (P1, P2, and P3) on APEC membrane, transmission electron microscopy (TEM) was performed as described previously. The peptide treatment was performed as described above. […] After incubation, cells were fixed overnight at room temperature with 3% glutaraldehyde & 2% paraformaldehyde), washed, and postfixed with 1% osmium tetroxide (OsO4). The cells were then dehydrated with graded ethanol series and embedding was performed using Embed 812 Kit (Electron Microscopy Sciences, PA). Ultrathin (70 nm) sections were prepared on formvar-carbon coated grids and stained with uranyl acetate and lead citrate. Microscopy was performed using Hitachi H-7500 microscope at MCIC. Untreated bacterial culture was used as control.

[3] = tested on: APEC O78; experiment: Efficacy in wax moth larvae model; type: in vivo, Galleria mellonella
Experimental: Efficacy and toxicity of peptides in wax moth (Galleria mellonella) larvae model: To measure the efficacy and toxicity of peptides (P1, P2, and P3) in vivo, wax moth larvae model was used as described previously. Wax moth larvae were obtained from Vanderhorst Wholesale, Inc. (Saint Marys, OH) and were kept at 37° C. overnight before use. Healthy larvae (creamy color with no blackening) were selected and kept in sterile petri dishes before inoculation. For toxicity evaluation, larvae (n=10/group) were injected with 25.5 mM of peptides (dissolved in sterile water containing DMSO) through last left pro-leg using PB600-1 repeating dispenser (Hamilton) attached to insulin syringe (ReliOn; 31 gauze, 8 mm needle length). The injected larvae were incubated for 72 h at 37° C., and mortality was recorded every 12 h.
For efficacy evaluation, larvae (n=15/group) were pretreated (as above) and infected with rifampicin resistant (Rif) APEC O78 (2.3×10^4 CFU/larva) through last right pro-leg within 30 mins of treatment. The larvae were incubated at 37° C. for 72 h and mortality was recorded as above. […] The statistical significance (P<0.05) of treatments on survival of larvae and APEC load inside larvae was calculated using log-rank test and one-way ANOVA followed by Tukey's post-hoc test, respectively.

[4] = tested on: APEC O78; experiment: Efficacy of peptides in chickens (oral, twice a day); type: in vivo; conditions: for Reduction of APEC colonization in cecum: 7 dpi
Experimental: Peptides were administered through orally twice a day from day 1 to day 7 either at 50 mg/kg or 100 mg/kg dose. On day 2, chickens were infected orally with Rif^γ APEC O78 (1-2×10^9 CFU/chicken). At day 9, chickens were euthanized, necropsied and cecum and internal organs (lung, liver, heart, and kidney) were processed for quantification of APEC load. The body weight of chickens was measured at day 9.
Efficacy of peptides in chickens: Animal study was approved by The Ohio State University Institutional Animal Care and Use Committee (IACUC, protocol #2010 A00000149). Chickens were euthanized using CO2 following American Veterinary Medical Association (AVMA) guidelines. Standard animal husbandry practices were followed throughout the experiment. Feed and water were provided ad libitum. The efficacy of peptides (P1, P2, and P3) were assessed at 50 mg/kg and 100 mg/kg doses in two successive experiments using commercial broiler chickens (n=10/group) (Cobb & Ross; Case Farms Ohio Hatchery, Strasburg, OH). […] Briefly, peptides dissolved in water [5 mg (50 mg/kg) or 10 mg (100 mg/kg) in 100 μL] were administered orally twice a day from day 1 (one day before APEC infection) today 7 (5 days post-infection; dpi). On day 2, chickens were infected orally with rifampicin resistant (Rif) APEC O78(27) (1-2×10^9 CFU/chicken). At 7 dpi (day 9), chickens were euthanized, necropsied and cecum and internal organs (lung, liver, heart, and kidney) were assessed for APEC load by plating on MacConkey agar plates containing 50 μg/mL rifampicin. The body weight of chickens was measured at the day of necropsy (day 9). The positive (PC; infected but not treated) and negative (NC; non-infected and non-treated) control chickens were included in both experiments. The statistical significance (P<0.05) of treatment on reduction of APEC load and effect on body weight was calculated using one-way ANOVA followed by Tukey's post-hoc test. […] Bacteria were grown in LB media and MICs were determined as above against respective peptides.

[5] = tested on: APEC
Experimental: FIGS. 58A-58B show the APEC load after treatment 8 days dpi with LGG and 50 mg/mL of peptides in drinking water.

In the case of PDENK [Peptide P2, PDENK], the “Growth of Gram-negative beneficial bacteria, particularly E. coli” value [1] is reported as “inhibited”, the “Growth of Gram-positive beneficial bacteria” value [1] is reported as “no effect” and the “APEC membrane in TEM” value [2] is reported as “membrane either sloughed (or shed), ruptured, or flaccid”. The “APEC load in the larvae” value ([3]; 72 h post-infection, untreated 7.4±3.1 log CFU/larva) was “no APEC was isolated”, the Larval mortality ([3]; pretreated with 25.5 mM, 72 h, untreated 73.34%) was 26.67% and the “Reduction of APEC colonization in cecum” value ([4]; 50 mg/kg dose) was 0.9 logs. The “Number of chickens positive for APEC in internal organs” value ([4]; 100 mg/kg dose) was “reduced the number of chickens positive for APEC”, the “Reduction of APEC colonization in cecum” value ([4]; 100 mg/kg dose) was 1.3 logs and the “Reduction of APEC colonization in ceca” value ([5]; LGG and 50 mg/mL of peptides in drinking water, 8 days dpi) was 1.02 Log CFU/gm. For the same substance, the Bodyweight ([5]; in vivo) was “no significant effect”.
